Data as given in patent US20070054899A1 (priority 2003, published 2007).
Read-outs that look alike come from different tables or passages of the source.

What was measured:
[1] = test system: uterine hypertrophy induced by androstenedione; experiment: Activity in vivo: inhibition of uterine hypertrophy induced by androstenedione; parameters: species or system rat (Sprague-Dawley); settings: Rattus norvegicus, 96 h, immature female rats, androstenedione 30 mg/kg for 4 days, read-out: % inhibition to doses (μg/Kg); for inhibition in vivo at 0.001 mg/kg: dose 1 μg/Kg; for inhibition in vivo at 0.01 mg/kg: dose 10 μg/Kg; for inhibition in vivo at 0.1 mg/kg: dose 100 μg/Kg; for inhibition in vivo at 1 mg/kg: dose 1000 μg/Kg
Procedure: The activity in vivo of aromatase inhibition by compounds of formula (I) according to the invention has been tested according to the model established by Bharnagar et al. (1990).
In general, immature female rats of the Sprague-Dawley line of a weight ranging from 40 to 50 g have been treated with a dose of androstenedione at 30 mg/kg for 4 days, in the absence or in the presence of doses of various compounds of formula (I).
Four hours after administration of an aromatase inhibitor, the rats were sacrificed. Their uteruses were removed, cleared of adhering fat and conjunctive tissue, next the uteruses were weighed (wet weight). The dry weight of the uteruses was determined the following day after a step of drying for one night at 80° C.

[2] = target: T1, aromatase (microsomes from the human placenta) (Homo sapiens, UniProt P11511); experiment: Aromatase inhibition in vitro, tritiated water method, human placenta microsomes; format: biochemical
T1 construct: using microsomes from the human placenta as source of the enzyme; from tissue; host or cells: human placenta microsomes
T1 sequence (P11511 1-503): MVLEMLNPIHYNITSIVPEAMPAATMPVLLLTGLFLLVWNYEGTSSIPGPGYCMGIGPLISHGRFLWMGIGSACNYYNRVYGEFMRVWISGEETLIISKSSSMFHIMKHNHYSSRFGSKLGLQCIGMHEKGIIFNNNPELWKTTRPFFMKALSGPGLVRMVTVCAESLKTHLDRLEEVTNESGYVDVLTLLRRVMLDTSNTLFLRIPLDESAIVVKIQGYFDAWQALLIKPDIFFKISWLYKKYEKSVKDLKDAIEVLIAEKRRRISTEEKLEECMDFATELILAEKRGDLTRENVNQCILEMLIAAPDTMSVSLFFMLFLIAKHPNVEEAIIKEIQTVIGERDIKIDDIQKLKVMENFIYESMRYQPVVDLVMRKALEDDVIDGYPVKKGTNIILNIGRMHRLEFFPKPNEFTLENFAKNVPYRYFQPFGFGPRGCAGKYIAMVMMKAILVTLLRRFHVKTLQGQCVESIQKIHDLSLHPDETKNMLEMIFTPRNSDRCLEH

aromatase (e) = aromatase (e) (UniProt O46512); format: biochemical; settings: value marked (e); read-out: Activity In vitro IC50(nM), (e)
Sequence of aromatase (e) (O46512 whole entry): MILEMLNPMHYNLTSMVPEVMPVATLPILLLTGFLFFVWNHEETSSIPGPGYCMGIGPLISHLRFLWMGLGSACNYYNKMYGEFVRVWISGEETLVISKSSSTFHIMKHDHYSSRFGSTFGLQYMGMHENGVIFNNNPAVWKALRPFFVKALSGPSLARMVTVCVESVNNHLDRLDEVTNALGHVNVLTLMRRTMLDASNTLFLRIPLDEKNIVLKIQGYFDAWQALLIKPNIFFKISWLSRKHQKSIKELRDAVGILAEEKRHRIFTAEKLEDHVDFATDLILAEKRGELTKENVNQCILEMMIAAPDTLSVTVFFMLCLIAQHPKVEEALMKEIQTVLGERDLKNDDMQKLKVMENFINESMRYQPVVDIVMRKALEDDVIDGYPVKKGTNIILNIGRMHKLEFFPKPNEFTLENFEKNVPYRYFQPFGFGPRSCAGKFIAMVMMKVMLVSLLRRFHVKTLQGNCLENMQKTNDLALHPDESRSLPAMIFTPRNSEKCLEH

[3] = value without (h)/(e) mark, read-out: Activity In vitro IC50
[4] = value marked (h), read-out: Activity In vitro IC50(nM), (h)

Row | Compound | inhibition in vivo at 0.01 mg/kg [1] | IC50 [2, 3] | also measured
1 | Cn1c(=O)sc2cc(C(c3ccc([N+](=O)[O-])cc3)n3cncn3)ccc21 (stereo not drawn) [PCH259] | 63% | 3.05 nM | inhibition in vivo at 0.001 mg/kg [1]: 31%; inhibition in vivo at 0.1 mg/kg [1]: 88%
2 | O=c1[nH]c2cc(C(c3ccc(Cl)cc3)n3cncn3)ccc2o1 (stereo not drawn) [PCH195] | – | 17.1 nM | –
3 | O=c1[nH]c2cc(C(c3ccncc3)n3ccnc3)ccc2o1 (stereo not drawn) [PC11129] | – | 26.8 nM | –
4 | CN1C(=O)COc2ccc(C(c3ccc(C#N)cc3)n3cncn3)cc21 (stereo not drawn) [PCH223] | 22% | – | inhibition in vivo at 0.001 mg/kg [1]: 4%; inhibition in vivo at 0.1 mg/kg [1]: 66%
5 | Cn1c(=O)oc2cc(C(c3ccc(Cl)cc3)n3ccnc3)ccc21 (stereo not drawn) [PCH15, 6-[(4-Chlorophenyl)(1H-imidazol-1-yl)methyl]-3-methyl-1,3-benzoxazol-2(3H)-one] | – | – | IC50 [2, 4]: > 2000 nM
6 | N#Cc1ccc(C(c2ccc3c(c2)SCC(=O)N3)n2ccnc2)cc1 (stereo not drawn) [PCH229] | 11% | 13.8 nM | inhibition in vivo at 0.1 mg/kg [1]: 42%; inhibition in vivo at 1 mg/kg [1]: 83%
7 | Cn1c(=O)sc2cc(C(c3cccc(C#N)c3)n3cncn3)ccc21 (stereo not drawn) [PCH258] | – | 31.7 nM | –
8 | Cn1c(=O)oc2cc(C(c3ccccc3)n3cnnc3)ccc21 (stereo not drawn) | – | – | IC50 [2, 4]: > 3000 nM
9 | Cn1c(=O)sc2cc(C(c3ccc(C#N)cc3)n3cncn3)ccc21 (stereo not drawn) [PCH158] | 56% | 8.71 nM | inhibition in vivo at 0.001 mg/kg [1]: 54%
10 | Cn1c(=O)sc2cc(C(c3ccc(C#N)cc3)n3cnnn3)ccc21 (stereo not drawn) [PCH248] | – | 11.8 nM | –
11 | O=c1[nH]c2cc(C(c3ccccc3)n3cncn3)ccc2s1 (stereo not drawn) [PCH132] | – | 178 nM | –
12 | Cn1c(=O)sc2cc(C(c3ccccc3)n3ccnc3)ccc21 (racemic) [(+/−)PCH28, 6-[1H-Imidazol-1-yl(phenyl)methyl]-3-methyl-1,3-benzothiazol-2(3H)-one] | 13% | – | inhibition in vivo at 0.1 mg/kg [1]: 25%; inhibition in vivo at 1 mg/kg [1]: 75%; IC50 (aromatase (e)): 23.4 nM
13 | Cn1c(=O)sc2cc(C(c3ccc(C#N)cc3)n3ccnc3)ccc21 (racemic) [PCH165 (+/−) CD4] | 23% | 4.54 nM | inhibition in vivo at 0.001 mg/kg [1]: 22%; inhibition in vivo at 0.1 mg/kg [1]: 66%
14 | N#Cc1ccc(C(c2ccc3oc(=O)[nH]c3c2)n2ccnc2)cc1 (stereo not drawn) [PC11128] | 29% | 5.83 nM | inhibition in vivo at 0.001 mg/kg [1]: 29%; inhibition in vivo at 0.1 mg/kg [1]: 53%
15 | Cn1c(=O)sc2cc(C(c3ccc(C#N)cc3)n3ccnc3)ccc21 (racemic) [PCH165 (−)CD4] | – | 4.94 nM | –
16 | 5-[(4-Cyanophenyl)(1H-1,2,4-triazol-1-yl)methyl]-6-methoxy-1,3-benzoxazol-2(3H)-one [GCA37] | – | 328 nM | –
17 | CCn1c(=O)sc2cc(C(c3ccc(C#N)cc3)n3cncn3)ccc21 (stereo not drawn) [PCH260] | 50% | 4.49 nM | inhibition in vivo at 0.001 mg/kg [1]: 32%; inhibition in vivo at 0.1 mg/kg [1]: 90%
18 | Cn1c(=O)oc2ccc(C(c3ccccc3)n3ccnc3)cc21 (stereo not drawn) [PCH31, 3-Methyl-5-[1H-imidazol-1-yl-(phenyl)methyl]-1,3-benzoxazol-2(3H)-one] | – | – | IC50 [2, 4]: 46.6 nM; IC50 (aromatase (e)): 50.1 nM
19 | O=C1COc2cc(C(c3ccccc3)n3ccnc3)ccc2N1 (stereo not drawn) [PCH211] | – | 74.4 nM | –
20 | CN1C(=O)COc2cc(C(c3ccccc3)n3ccnc3)ccc21 (stereo not drawn) [PCH19, 4-Methyl-7-[1H-imidazol-1-yl(phenyl)methyl]-1,4-benzoxazin-3(4H)-one] | – | – | IC50 [2, 4]: 52.5 nM; IC50 (aromatase (e)): 59.9 nM
21 | Cn1c(=O)sc2cc(C(c3ccc(C#N)cc3)n3ccnc3)ccc21 (racemic) [PCH165 (+)CD4] | – | 8.81 nM | –
22 | CN1C(=O)CSc2cc(C(c3ccc(C#N)cc3)n3ccnc3)ccc21 (stereo not drawn) [PCH240] | – | 5.38 nM | –
23 | CCn1c(=O)sc2cc(C(c3ccc([N+](=O)[O-])cc3)n3cncn3)ccc21 (stereo not drawn) [PCH243, 3-Ethyl-6-[(4-nitrophenyl)(1H-1,2,4-triazol-1-yl)methyl]-1,3-benzothiazol-2(3H)-one] | – | 3.99 nM | –
24 | Cn1c(=O)oc2cc(C(c3ccccc3)n3cncn3)ccc21 (stereo not drawn) [PCH20, 3-Methyl-6-[phenyl(1H-1,2,4-triazol-1-yl)methyl]-1,3-benzoxazol-2(3H)-one] | – | – | IC50 [2, 4]: > 3000 nM
